The values that follow come from patent US20250195530A1, “POLQ INHIBITORS” (ASTRAZENECA AB, priority 2022, published 2025).

In one assay the test system is DLD-1 BRCA2−/− cells. As to the kind of experiment: Homologous recombination synthetic lethal inhibition of proliferation, DLD-1 BRCA2-/- (Cell Titre Glo 3D). The format is cell-based. The settings on record: for IC50: Homo sapiens; for POLQ PD Prolif Lumin BRCA2 −/− mean pIC50: DLD-1 BRCA2 −/−. Summed up: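 DLD-1 BRCA2−/− and parental DLD-1 cells exposed to 10-point dose range (10 μM to 0.51 nM, 3-fold) in RPMI/10% FBS at 37 °C, with medium and compound replenished on day 6. Viability by Cell Titre Glo 3D luminescence at day 7 (DLD-1) or day 12 (BRCA2−/−); IC50 as concentration halving maximum signal.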

The test system of the next assay is DLD-1 cells. Kind of assay: Inhibition of proliferation, DLD-1 BRCA2 wt control (Cell Titre Glo 3D). Format: cell-based. The following applies: for IC50: Homo sapiens; for POLQ PD Prolif Lumin DLD1 mean pIC50: DLD1 BRCA2 wt. The text has this: This assay identifies anti-proliferative effects of POLQ compounds in the homologous recombination deficient colorectal cell line DLD-1 BRCA2−/− over 8-9 population doublings (7 days for DLD-1 and 12 days for DLD-1 BRCA2−/−). DLD1 BRCA2 wt are used as a control to detect cell toxic effects not specific to homologous recombination deficiency.
DLD-1 BRCA2−/− and DLD-1 cells were kept in continuous culture in Assay Medium (RPMI 1640 phenol red free (Sigma R7509) containing 1% GlutaMAX (Gibco 35050) and 10% Foetal Bovine Serum (Gibco 10270-106)). On the day of the assay cells in culture of ˜80-90% confluent were used. Cell monolayers were washed with 10 mL PBS, then removed and added 2 mL TrypLE Express (Gibco 12604). The cells with TrypLE Express were incubated for 5 minutes in cell culture incubator and then the detached cells resuspend in 15 mL Assay Medium. Cells were counted using a ViCell and the cell images were monitored for clumps of cells, ideally they should be single or <3 cell clusters. The cells were diluted to 3,000 cells/mL of DLD-1 BRCA2−/− and 1,500 cells/mL of DLD-1 in Assay Medium and 100 μL added per well of transparent bottomed, black, tissue culture-treated 96-well plates (CoStar, No. 3904) Assay Ready Plates. The Assay Ready Plates contain a 10 point 10 μM to 0.51 nM dose range with three-fold dilutions in DMSO with a final volume of 100 nL. The plates were incubated at 37° C. with 5% C02 for 6 days. On day 6, 100 μL/well of Assay Medium was added to duplicate Assay Ready Plates. 90 μL of culture medium was removed from the cell plates and replenished with the Assay Media and compounds from the duplicate Assay Ready Plates using the Bravo. The plates were further incubated at 37° C. with 5% CO2. On day 7 the plates containing DLD-1 and Cell Titre Glo 3D (Promega G9683) were equilibrated to room temperature, then 60 μL of Cell Titre Glo 3D was added per well and incubated on a shaking platform for 30 min. Plates were read on the Envision measuring luminescence for 1 second per well. On day 12 the plates containing DLD-1 BRCA2−/− cells and Cell Titre Glo 3D (Promega G9683) were equilibrated to room temperature, then 60 μL Cell Titre Glo 3D added per well and incubated on a shaking platform for 30 min. Plates were read on the Envision measuring luminescence for 1 second per well. The data was exported into a suitable software package (such as Genedata) to perform curve fitting analysis. Inhibition of cell proliferation was expressed as an IC5o value and was determined by calculation of the concentration of compound that was required to give a 50% reduction of the average maximum Total Intensity signal.

Where [1] appears, read: DLD-1, first proliferation column, DLD-1 BRCA2-/-, read-out: POLQ PD Prolif Lumin (converted).
[2] abbreviates: DLD-1, second proliferation column, DLD-1 BRCA2 wt control, read-out: POLQ PD Prolif Lumin (converted).
Setting [3] is: DLD-1, 288 h, DLD-1 BRCA2−/− cells, 12 days, read-out: POLQ PD Prolif Lumin BRCA2 −/− mean pIC50 (converted).
[4] abbreviates: DLD-1, 168 h, DLD-1 BRCA2 wt cells, 7 days, read-out: POLQ PD Prolif Lumin DLD1 mean pIC50 (converted).

Structures are written as SMILES. Where two headings read alike, the source gives them in different places.

Consider `Cc1ccnc(Cn2c(-c3ccc(CC(=O)N4C[C@@H](C)N[C@@H](C)C4)cc3Cl)nc3c(OC4(C)CC4)ncnc32)c1` [Example T606, 2-(3-chloro-4-(6-(1-methylcyclopropoxy)-9-((4-methylpyridin-2-yl)methyl)-9H-purin-8-yl)phenyl)-1-((3R,5S)-3,5-dimethylpiperazin-1-yl)ethan-1-one], for which the IC50 with DLD-1 BRCA2−/− cells (setting [1]) is 794 nM; in the assay with DLD-1 cells (setting [2]), above 10000 nM.

Take `Cc1ccnc(Cn2c(-c3ccc(CCN4CCCC4)cc3Cl)nc3c(OC4(C)CC4)ncnc32)c1` [Example T505, 8-(2-chloro-4-(2-(pyrrolidin-1-yl)ethyl)phenyl)-6-(1-methylcyclopropoxy)-9-((4-methylpyridin-2-yl)methyl)-9H-purine]: the IC50 in the assay on DLD-1 BRCA2−/− cells (DLD-1, first proliferation column (c5), DLD-1 BRCA2-/-, read-out: POLQ PD Prolif Lumin (converted)) was 158 nM; with DLD-1 cells (DLD-1, second proliferation column (c6), DLD-1 BRCA2 wt control, read-out: POLQ PD Prolif Lumin (converted)), above 10000 nM.

For `CC(C)Oc1ccc2c(c1)nc(-c1ccc(OCCC3CCCN3C)cc1Cl)n2Cc1ccccc1` (single isomer, unassigned) [Example A8, 1-benzyl-2-(2-chloro-4-(2-(1-methylpyrrolidin-2-yl)ethoxy)phenyl)-5-isopropoxy-1H-benzo[d]imidazole], the IC50 in the assay on DLD-1 BRCA2−/− cells (setting [3]) is 126 nM; in the assay with DLD-1 cells (setting [4]), 501 nM.

For `COc1ccc(C)cc1Cn1c(-c2cccc(O[C@H]3CC[C@H](C(=O)O)CC3)c2Cl)nc2c(OC3(C)CC3)ncnc21` [Example U91, (1r,4r)-4-(2-chloro-3-(9-(2-methoxy-5-methylbenzyl)-6-(1-methylcyclopropoxy)-9H-purin-8-yl)phenoxy)cyclohexane-1-carboxylic acid], the “POLQ PD Prolif Lumin BRCA2 −/− mean pIC50” value in the assay on DLD-1 BRCA2−/− cells (mean) was determined as 7.8. In addition, in the assay on DLD-1 cells (mean), the “POLQ PD Prolif Lumin DLD1 mean pIC50” value is below 5.0.

In the case of `Cc1ccnc(Cn2c(-c3ccc(CC(=O)N4CCNC(=O)C4)cc3Cl)nc3c(OC4(C)CC4)ncnc32)c1` [Example T431, 4-(2-(3-chloro-4-(6-(1-methylcyclopropoxy)-9-((4-methylpyridin-2-yl)methyl)-9H-purin-8-yl)phenyl)acetyl)piperazin-2-one], the IC50 in the assay with DLD-1 BRCA2−/− cells (DLD-1, proliferation, luminescence, taken as DLD-1 BRCA2-/-, read-out: POLQ PD Prolif Lumin (converted)) was 2510 nM; in the assay on DLD-1 cells (DLD-1, proliferation, luminescence, second Prolif column (c6), taken as DLD-1 BRCA2 wt control, read-out: POLQ PD Prolif Lumin (converted)), above 10000 nM.

On to `COc1ccc(Cl)cc1Cn1c(-c2ccc(O[C@H]3CC[C@@H](C(=O)O)CC3)cc2Cl)nc2c(OC3(C)CC3)ncnc21` [Example U40, (1s,4s)-4-(3-chloro-4-(9-(5-chloro-2-methoxybenzyl)-6-(1-methylcyclopropoxy)-9H-purin-8-yl)phenoxy)cyclohexane-1-carboxylic acid], for which the “POLQ PD Prolif Lumin BRCA2 −/− mean pIC50” value with DLD-1 BRCA2−/− cells (mean) stood at 7. Further, in the assay with DLD-1 cells (mean), the “POLQ PD Prolif Lumin DLD1 mean pIC50” value is listed as below 5.1.

Regarding `CC(=O)N1CCN(CCOc2cccc(-c3nc4c(OC5(C)CC5)ncnc4n3Cc3ccccc3)c2Cl)CC1` [Example D8, 1-(4-(2-(3-(9-benzyl-6-(1-methylcyclopropoxy)-9H-purin-8-yl)-2-chlorophenoxy)ethyl)piperazin-1-yl)ethan-1-one], the figures for the IC50 with DLD-1 BRCA2−/− cells (setting [3]) and with DLD-1 cells (setting [4]) were 50.1 nM and 6310 nM, respectively.

With `Cc1ccnc(Cn2c(-c3ccc(OC4CCNCC4)cc3Cl)nc3c(OC4(C)CC4)ncnc32)c1` [Example T354, 8-(2-chloro-4-(piperidin-4-yloxy)phenyl)-6-(1-methylcyclopropoxy)-9-((4-methylpyridin-2-yl)methyl)-9H-purine], the IC50 in the assay on DLD-1 BRCA2−/− cells (DLD-1, first proliferation column (c5), taken as DLD-1 BRCA2-/-, read-out: POLQ PD Prolif Lumin (converted)) was 501 nM; with DLD-1 cells (DLD-1, second proliferation column (c6), taken as DLD-1 BRCA2 wt, read-out: POLQ PD Prolif Lumin (converted)) it was above 10000 nM.

Consider `CC1(Oc2ncnc3c2nc(-c2ccc(OCCN4CCNCC45CC5)cc2Cl)n3Cc2ccccc2)CC1` [Example R22, 8-(4-(2-(4,7-diazaspiro[2.5]octan-4-yl)ethoxy)-2-chlorophenyl)-9-benzyl-6-(1-methylcyclopropoxy)-9H-purine], for which the IC50 was 251 nM with DLD-1 BRCA2−/− cells (setting [3]) and 3160 nM with DLD-1 cells (setting [4]).

With `CC1(Oc2ncnc3c2nc(-c2ccc(OCCN4CCNCC4)cc2Cl)n3Cc2cc(Cl)ccn2)CC1` [Example 10, 8-(2-Chloro-4-(2-(piperazin-1-yl)ethoxy)phenyl)-9-((4-chloropyridin-2-yl)methyl)-6-(1-methylcyclopropoxy)-9H-purine], the figures for the IC50 with DLD-1 BRCA2−/− cells (setting [3]) and with DLD-1 cells (setting [4]) were 200 nM and above 10000 nM, respectively.

As for `Cc1ccnc(Cn2c(-c3ccc(CCN4CCC(O)CC4)cc3Cl)nc3c(OC4(C)CC4)ncnc32)c1` [Example T591, 1-(3-chloro-4-(6-(1-methylcyclopropoxy)-9-((4-methylpyridin-2-yl)methyl)-9H-purin-8-yl)phenethyl)piperidin-4-ol], the IC50 in the assay on DLD-1 BRCA2−/− cells (setting [1]) was 316 nM; in the assay on DLD-1 cells (setting [2]), above 10000 nM.

Regarding `COc1ccc(F)cc1Cn1c(-c2cccc(O[C@H]3C[C@@H](C(=O)O)C3)c2Cl)nc2c(OC3(C)CC3)ncnc21` [Example U74, (1s,3s)-3-(2-chloro-3-(9-(5-fluoro-2-methoxybenzyl)-6-(1-methylcyclopropoxy)-9H-purin-8-yl)phenoxy)cyclobutane-1-carboxylic acid], the “POLQ PD Prolif Lumin BRCA2 −/− mean pIC50” value with DLD-1 BRCA2−/− cells (mean) is 7.2. Moreover, the “POLQ PD Prolif Lumin DLD1 mean pIC50” value in the assay on DLD-1 cells (mean) was below 5.0.

With `CC1(Oc2ncnc3c2nc(-c2ccc(CN)cc2Cl)n3Cc2ccccc2)CC1` [Example N7, (4-(9-benzyl-6-(1-methylcyclopropoxy)-9H-purin-8-yl)-3-chlorophenyl)methanamine], the IC50 in the assay on DLD-1 BRCA2−/− cells (setting [3]) is 631 nM; in the assay with DLD-1 cells (setting [4]) it was 6310 nM.

Consider `Cc1ccnc(Cn2c(-c3ccc(OCCN(C)C)cc3Cl)nc3c(OC4(C#N)CC4)ncnc32)c1` [Example T203, 1-((8-(2-chloro-4-(2-(dimethylamino)ethoxy)phenyl)-9-((4-methylpyridin-2-yl)methyl)-9H-purin-6-yl)oxy)cyclopropane-1-carbonitrile], for which the IC50 was 398 nM in the assay on DLD-1 BRCA2−/− cells (DLD-1, DLD-1 BRCA2-/- proliferation, column head only partly shown, read-out: POLQ PD Prolif Lumin (converted)) and above 10000 nM with DLD-1 cells (DLD-1, DLD-1 BRCA2 wt control proliferation, column head only partly shown, read-out: POLQ PD Prolif Lumin (converted)).

Turning to `Cc1ccnc(Cn2c(-c3ccc(CC(N)=O)cc3Cl)nc3c(OC4(C)CC4)ncnc32)c1` [Example 30, 2-(3-Chloro-4-(6-(1-methylcyclopropoxy)-9-((4-methylpyridin-2-yl)methyl)-9H-purin-8-yl)phenyl)acetamide], the IC50 was 631 nM in the assay with DLD-1 BRCA2−/− cells (DLD-1, 288 h, DLD-1 BRCA2−/−, 12 days, Cell Titre Glo 3D, read-out: POLQ PD Prolif Lumin BRCA2 −/− Mean pIC50 (converted)) and above 10000 nM in the assay on DLD-1 cells (DLD-1, 168 h, DLD-1 (BRCA2 wt control), 7 days, Cell Titre Glo 3D, read-out: POLQ PD Prolif Lumin DLD1 Mean pIC50 (converted)).

As for `Cc1ccnc(Cn2c(-c3cccc(CC(N)=O)c3Cl)nc3c(OC4(C)CC4)ncnc32)c1` [Example T56, 2-(2-chloro-3-(6-(1-methylcyclopropoxy)-9-((4-methylpyridin-2-yl)methyl)-9H-purin-8-yl)phenyl)acetamide], the IC50 was 794 nM with DLD-1 BRCA2−/− cells (DLD-1, DLD-1 BRCA2 −/− cells, mean, read-out: POLQ PD Prolif Lumin BRCA2 −/− mean pIC50 (converted)) and above 10000 nM in the assay on DLD-1 cells (DLD-1, DLD1 BRCA2 wt cells, mean, read-out: POLQ PD Prolif Lumin DLD1 mean PIC50 (converted)).
